“Also recorded” adds a separate entry of the source.
Key:
[1] = target: T1, hTLR2 receptor (Homo sapiens, UniProt O60603); test: HEK-Blue hTLR2 cell response test (SEAP reporter activity); format: cell-based
T1 construct: host or cells: HEK-Blue hTLR2 (HEK293-derived, SEAP reporter)
Excerpt: (§1) The cell lines, in particular HEK-Blue™ (InvivoGen), are lines modified by stable transfection with a vector encoding an innate immunity receptor, in particular human (h) receptors. They are also cotransfected with the reporter gene, in particular a reporter gene producing SEAP, the synthesis of which is under the direct control of the signaling pathway associated with the receptor overexpressed. Preferably, this reporter gene encodes a colored or fluorescent protein or a protein of which the activity can be measured with or without substrate. […] The use of these lines makes it possible to target certain families of molecules of microbial origin according to the receptor expressed. Preferably, cell lines expressing either hTLR2 or hTLR4 or hNOD2 are used. In addition, a control line which expresses no innate immunity receptor is also used.
(§2) For the tests according to the present invention, four lines are preferably used: • HEK-Blue™ hTLR2 line: this line expressing the hTLR2 receptor responds specifically to TLR2 agonists (PGNs and lipopeptides especially). […]
(§3) The dose-response curves are produced with standard agonist molecules: LPS, PGN, LTA, zymosan and MDP. The Raw-Blue™ and HEK-Blue™ TLR2, TLR4, NOD2 and Null lines are incubated with increasing concentrations of agonists, and the cell response is measured by quantifying the SEAP activity (FIGS. 1-5). […]

[2] = target: T2, hNOD2 receptor (Homo sapiens, UniProt Q9HC29); test: HEK-Blue hNOD2 cell response test (SEAP reporter activity); format: cell-based; details: increasing concentrations of agonist
T2 construct: host or cells: HEK-Blue hNOD2 (HEK293-derived, SEAP reporter)
T2 sequence (Q9HC29 whole entry): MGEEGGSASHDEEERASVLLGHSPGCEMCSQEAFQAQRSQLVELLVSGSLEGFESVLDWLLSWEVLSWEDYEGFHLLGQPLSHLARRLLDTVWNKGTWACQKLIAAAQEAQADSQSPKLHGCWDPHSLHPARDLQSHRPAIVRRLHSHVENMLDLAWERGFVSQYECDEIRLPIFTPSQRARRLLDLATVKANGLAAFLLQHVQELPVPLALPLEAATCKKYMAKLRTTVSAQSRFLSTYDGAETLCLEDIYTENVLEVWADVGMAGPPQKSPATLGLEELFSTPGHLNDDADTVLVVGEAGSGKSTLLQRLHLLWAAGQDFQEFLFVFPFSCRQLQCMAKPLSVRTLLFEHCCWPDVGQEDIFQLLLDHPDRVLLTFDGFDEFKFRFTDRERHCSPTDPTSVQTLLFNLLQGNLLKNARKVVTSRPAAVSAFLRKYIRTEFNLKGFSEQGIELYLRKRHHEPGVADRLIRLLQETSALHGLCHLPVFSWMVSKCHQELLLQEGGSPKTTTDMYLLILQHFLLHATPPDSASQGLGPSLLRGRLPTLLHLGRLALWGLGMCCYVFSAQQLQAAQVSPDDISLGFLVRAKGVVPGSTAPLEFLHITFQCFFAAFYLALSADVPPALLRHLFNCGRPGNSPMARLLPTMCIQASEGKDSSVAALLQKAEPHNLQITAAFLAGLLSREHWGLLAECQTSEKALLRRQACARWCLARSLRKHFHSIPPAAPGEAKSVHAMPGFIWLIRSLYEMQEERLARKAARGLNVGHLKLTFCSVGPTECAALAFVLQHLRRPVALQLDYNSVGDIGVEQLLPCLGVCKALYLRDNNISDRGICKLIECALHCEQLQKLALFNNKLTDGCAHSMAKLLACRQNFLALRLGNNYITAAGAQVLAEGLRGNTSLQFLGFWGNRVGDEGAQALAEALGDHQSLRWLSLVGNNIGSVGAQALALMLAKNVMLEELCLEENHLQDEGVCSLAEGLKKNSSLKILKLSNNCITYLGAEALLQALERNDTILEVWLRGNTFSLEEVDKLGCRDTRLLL
Excerpt: as §1, §2, §3

[3] = test system: Raw-Blue™ line; test: Raw-Blue cell inflammatory response test (SEAP reporter activity); format: cell-based, mouse
Excerpt: The Raw-Blue™ line is a line of mouse macrophages transfected with a reporter gene producing a secreted form of alkaline phosphatase (SEAP: secreted embryonic alkaline phosphatase), the transcription of which is under the direct control of the inflammatory signaling pathways. The advantage of this line is that it naturally expresses virtually all the innate immunity receptors, including the TLR2, TLR4 and NOD2 receptors. Thus, these cells will respond to the majority of inflammatory contaminants, and the response will be monitored by measuring the enzymatic activity of the SEAP produced. Preferably, this line is used in the test at a cell density of approximately 0.5×10^6 cells/well. The bringing of the preparation of glucose polymers or of hydrolysates thereof into contact with the cells lasts approximately 16 to 24 h.
The dose-response curves are produced with standard agonist molecules: LPS, PGN, LTA, zymosan and MDP. The Raw-Blue™ and HEK-Blue™ TLR2, TLR4, NOD2 and Null lines are incubated with increasing concentrations of agonists, and the cell response is measured by quantifying the SEAP activity (FIGS. 1-5).
For the cell tests, the samples are diluted to 1/10 in the cell culture medium (final concentration: 3.2% (w/v)). […]

[4] = target: T3, hTLR4 receptor (Homo sapiens, UniProt O00206+Q9Y6Y9); test: HEK-Blue hTLR4 cell response test (SEAP reporter activity); format: cell-based
T3 construct: host or cells: HEK-Blue hTLR4 (HEK293-derived, SEAP reporter)
T3 sequence (O00206 24-839): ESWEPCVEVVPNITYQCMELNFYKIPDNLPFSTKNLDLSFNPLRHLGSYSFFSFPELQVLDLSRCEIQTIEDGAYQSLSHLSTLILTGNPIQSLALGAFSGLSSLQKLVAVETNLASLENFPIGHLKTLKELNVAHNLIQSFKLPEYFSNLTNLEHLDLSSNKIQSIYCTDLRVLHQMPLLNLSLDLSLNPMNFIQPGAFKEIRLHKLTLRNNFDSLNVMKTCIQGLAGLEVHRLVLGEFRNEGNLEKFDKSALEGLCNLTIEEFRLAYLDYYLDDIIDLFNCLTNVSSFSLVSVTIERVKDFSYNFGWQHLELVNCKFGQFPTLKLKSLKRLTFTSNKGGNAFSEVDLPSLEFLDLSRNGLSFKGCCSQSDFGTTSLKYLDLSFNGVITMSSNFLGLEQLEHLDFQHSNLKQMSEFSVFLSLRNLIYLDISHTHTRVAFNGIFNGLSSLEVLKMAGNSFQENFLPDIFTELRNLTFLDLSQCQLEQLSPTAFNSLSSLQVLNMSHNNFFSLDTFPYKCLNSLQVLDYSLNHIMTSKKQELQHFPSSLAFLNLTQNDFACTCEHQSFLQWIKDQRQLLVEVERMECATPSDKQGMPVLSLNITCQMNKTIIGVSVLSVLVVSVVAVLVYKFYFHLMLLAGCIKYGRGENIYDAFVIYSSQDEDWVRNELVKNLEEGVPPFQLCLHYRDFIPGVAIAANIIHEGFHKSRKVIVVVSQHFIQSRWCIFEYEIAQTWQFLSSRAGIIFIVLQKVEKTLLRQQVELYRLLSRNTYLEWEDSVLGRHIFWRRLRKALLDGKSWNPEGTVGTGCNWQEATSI
T3 sequence (Q9Y6Y9 17-160 limits assumed): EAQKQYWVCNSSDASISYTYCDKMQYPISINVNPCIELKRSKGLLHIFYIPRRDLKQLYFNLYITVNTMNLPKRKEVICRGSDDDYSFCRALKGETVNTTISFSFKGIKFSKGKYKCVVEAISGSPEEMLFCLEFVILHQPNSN
Excerpt: as §1, §2, §3

[5] = background statement; cited from earlier work
[6] = test system: Raw-Blue™ and HEK-Blue™ lines; test: Assessment by sample of the inflammatory activities from the combined cell tests; format: cell-based; details: overall assessment, FIG. 11
Procedure: The objective of these tests is to determine the pro-inflammatory reactivity and the nature of the contaminants present in the glucose polymer matrices and the batch of glucose polymer hydrolysate.
The analyses are carried out on: • Raw-Blue™ line: any contaminants with high reactivity for PGNs, • HEK-Blue™ hTLR2 line: high reactivity for PGNs, • HEK-Blue™ hTLR4 line: high reactivity for LPSs, • HEK-Blue™ hNOD2 line: MDP and PGN depolymerization products, • HEK-Blue™ Null2 line: control for absence of cell toxicity.

[7] = increasing concentrations of agonist, SEAP activity

T1 sequence (O60603 19-784 limits assumed): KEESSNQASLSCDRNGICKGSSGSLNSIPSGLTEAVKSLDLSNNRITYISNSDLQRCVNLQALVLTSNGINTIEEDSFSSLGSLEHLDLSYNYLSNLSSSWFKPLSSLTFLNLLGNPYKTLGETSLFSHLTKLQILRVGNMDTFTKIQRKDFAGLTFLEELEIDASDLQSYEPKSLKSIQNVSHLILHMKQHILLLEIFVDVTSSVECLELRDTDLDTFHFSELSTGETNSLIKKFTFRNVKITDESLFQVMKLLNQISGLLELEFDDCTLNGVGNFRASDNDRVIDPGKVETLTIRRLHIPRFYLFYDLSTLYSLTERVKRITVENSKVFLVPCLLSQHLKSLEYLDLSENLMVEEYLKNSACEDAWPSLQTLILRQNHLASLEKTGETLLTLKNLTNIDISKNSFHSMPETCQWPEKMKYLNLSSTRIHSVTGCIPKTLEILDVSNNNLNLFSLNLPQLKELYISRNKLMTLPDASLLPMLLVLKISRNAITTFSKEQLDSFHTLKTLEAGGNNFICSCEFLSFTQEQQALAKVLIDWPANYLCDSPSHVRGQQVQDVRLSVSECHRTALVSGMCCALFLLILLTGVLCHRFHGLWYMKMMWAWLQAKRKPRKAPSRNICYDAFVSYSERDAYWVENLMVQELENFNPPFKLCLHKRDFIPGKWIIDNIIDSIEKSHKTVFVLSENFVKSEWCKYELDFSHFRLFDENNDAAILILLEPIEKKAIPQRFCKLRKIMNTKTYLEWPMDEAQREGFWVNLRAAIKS

CC(=O)N[C@H]1C(O)O[C@H](CO)[C@@H](O)[C@@H]1O[C@H](C)C(=O)N[C@@H](C)C(=O)N[C@H](CCC(=O)O)C(N)=O (mixture of isomers) [MDP, muramyl dipeptide]
HEK-Blue hTLR2 cell response to standard agonists [1, 7]: no reactivity | HEK-Blue hNOD2 cell response to standard agonists [2]: strong reactivity | Raw-Blue cell response to standard agonists [3, 7]: do not respond | HEK-Blue hTLR4 cell response to standard agonists [4, 7]: no reactivity

formyl-Met-Leu-Phe tripeptide [f-MLP]
Induction of a cytokine response per se [5]: incapable of inducing a cytokine response per se

O.O=C[C@H](O)[C@@H](O)[C@H](O)[C@H](O)CO [LYCADEX®, dextrose monohydrate]
HEK-TLR2 cell response induced by matrix ([1]; nonfiltered sample, 3.2% (w/v), monohydrate): do not trigger responses; also recorded: only barely or not at all active | Assessment of inflammatory activity by sample [6]: low-strength inflammatory activity | Raw cell response induced by matrix ([3]; nonfiltered sample, 3.2% (w/v)): trigger an inflammatory response | HEK-TLR4 cell response induced by matrix ([4]; nonfiltered sample, 3.2% (w/v)): do not trigger a significant response

— patent US20200400650A1, “METHODS FOR DECONTAMINATING CIRCUITS FOR PRODUCING GLUCOSE POLYMERS AND HYDROLYSATES OF GLUCOSE POLYMERS” (Roquette Freres, priority 2012, published 2020)
